Source: US10881709B2, “Immune system modulators and compositions” (Canimguide Therapeutics AB, priority 2015, dated 2021)
Peptide text beside a SMILES is read from it.

Key:
[1] = tested on: spontaneous canine tumours; test: Intra-tumoral treatment of spontaneous tumours in dogs; type: in vivo; conditions: single dog
Method: Seventeen spontaneous canine tumours, of variable histology have been treated by intra-tumoral injection of 40 nmol P28R in 200 microliters. The tumours were resected 3-5 days later, immediately snap frozen and stored at −80° C. until further processed. A detailed description of treatment of the tumors is provided below (see Examples 50-60). In these examples, 15 control dogs with untreated tumours (5 snap frozen and 10 FFPE) were also examined.
A summary is provided for 7 dogs with treated mammary tumours and 5 untreated control dogs (see FIG. 88). Tumour cells (881 for treated dogs, 882 for untreated control dogs) and lymphocytes (883 for both treated dogs and untreated control dogs) were counted at 400× magnification. The ratio between these cells was used as a measure on the inflammatory infiltrate (FIG. 88). The reproducibility and the influence of tumour heterogeneity on cell counts were evaluated by counting several areas from each tumour section.
The therapeutic efficacy was evaluated as the presence of an inflammatory infiltrate and the occurrence of tumour cell regressive changes. As migration of effector cells close to tumour cells is one important, but often inhibited function of these cells, the effect of P28R was specifically evaluated as the presence of inflammatory cells infiltrating into the tumour cell areas close to the tumour cells. […]

[2] = Toxicological study and observation of side effects in dogs; type: in vivo, dog; conditions: 200 nM in 1 mL subcutaneously and 40 nM in 200 microliters intra-tumourally
Method: So far nine dogs have been treated with P28R in accordance with some embodiments herein, 4 in the toxicological study (CiToxLab, Denmark) with 200 nM administered in 1 mL subcutaneously and 5 dogs in the treatment study reported here with 40 nM in 200 microliters intra tumourally.
More than 20 dogs have been treated with P28R, including 4 in the toxicological study (CiToxLab®, Denmark) with 200 nM administered in 1 mL subcutaneously and 17 dogs in the treatment study reported here with 40 nM in 200 microliters intra-tumourally.

[3] = Toxicological aspects of P28R in dogs (systemic side effects); type: in vivo, dog; conditions: 21 dogs: 4 with 200 nM in 1 mL subcutaneously, 17 with 40 nM in 200 microliters intra-tumourally
Method: Twenty-one dogs have been treated with P28R, 4 in the toxicological study (CiToxLab®, Denmark) with 200 nM administered in 1 mL subcutaneously and 17 dogs in the treatment study reported here with 40 nM in 200 microliters intra-tumourally.

For `CC(C)C[C@H](NC(=O)[C@H](CO)NC(=O)[C@H](CC(C)C)NC(=O)[C@H](CCCCN)NC(=O)[C@@H](NC(=O)[C@H](Cc1ccccc1)NC(=O)[C@H](Cc1ccccc1)NC(=O)[C@@H](NC(=O)[C@H](CC(=O)O)NC(=O)[C@H](CC(C)C)NC(=O)[C@H](CCCCN)NC(=O)[C@@H](N)CCCCN)[C@@H](C)O)C(C)C)C(=O)N[C@@H](Cc1ccccc1)C(=O)N[C@H](C(=O)N[C@@H](CCC(=O)O)C(=O)N[C@@H](CCCNC(=N)N)C(=O)O)[C@@H](C)O` [P28R] (H-KKLDTFFVKLSLFTER-OH; N-terminus and C-terminus assumed), the “clinical observations after injection until resection” value [1] was “No systemic adverse events were observed”, the systemic side effects [2] was “None of these dogs showed any systemic side effects” and the systemic side effects [3] was “None of these dogs showed any systemic side effects”.
